Values quoted from earlier work in patent publication US4122157A, “Nitrofurantoin sustained release tablet” (Richardson-Merrell Inc., priority 1977, dated 1978).

Conditions: background statement

For `O=C1CN(N=Cc2ccc([N+](=O)[O-])o2)C(=O)N1` [Nitrofurantoin, 1-[(5-nitrofurfurylidene)amino]hydantoin], the tolerability in humans is given as “remarkably well tolerated in humans” and the “most frequent adverse reactions” value (humans) is given as “anorexia, nausea and emesis”.
